Laboratory results as given in US9187472B2 (AbbVie Inc., priority 2012, dated 2015).

What follows are compounds tested on PC3 cells (assay: NAMPT Cell Proliferation Assay). Conditions: Homo sapiens, PC-3, 120 h, 5 days incubation, cell viability by Cell Titer Glo.
Type: cell-based
Outline: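 Following overnight attachment in RPMI with 10% heat-inactivated FBS, PC3 cells at 500 per well receive compounds spanning 10 μM down to 1×10^−5 μM. Growth is assessed by luminescent viability read after 5 days.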
Work on O=C(NCc1ccn2ccnc2c1)c1ccc(C2CCN(C(=O)c3nc4c(s3)CCCC4)CC2)cc1 [Example 1000, N-(imidazo[1,2-a]pyridin-7-ylmethyl)-4-[1-(4,5,6,7-tetrahydro-1,3-benzothiazol-2-ylcarbonyl)piperidin-4-yl]benzamide] yielded an IC50 of 81.8 nM. O=C(NCc1ccn2ccnc2c1)c1ccc(C2CCN(C(=O)c3nc4ccccc4s3)CC2)cc1 [Example 1001, 4-[1-(1,3-benzothiazol-2-ylcarbonyl)piperidin-4-yl]-N-(imidazo[1,2-a]pyridin-7-ylmethyl)benzamide] gave an IC50 of 95.3 nM. CCc1cc(C(=O)N2CCC(c3ccc(C(=O)NCc4ccn5ccnc5c4)cc3)CC2)on1 [Example 1002, 4-{1-[(3-ethyl-1,2-oxazol-5-yl)carbonyl]piperidin-4-yl}-N-(imidazo[1,2-a]pyridin-7-ylmethyl)benzamide] showed an IC50 of 154 nM. C=CCn1nc(C)cc1C(=O)N1CCC(c2ccc(C(=O)NCc3ccn4ccnc4c3)cc2)CC1 [Example 1003, N-(imidazo[1,2-a]pyridin-7-ylmethyl)-4-(1-{[3-methyl-1-(prop-2-en-1-yl)-1H-pyrazol-5-yl]carbonyl}piperidin-4-yl)benzamide] gave an IC50 of 4.96 nM. O=C(NCc1ccn2ccnc2c1)c1ccc(C2CCN(C(=O)c3ccc4snnc4c3)CC2)cc1 [Example 1004, 4-[1-(1,2,3-benzothiadiazol-5-ylcarbonyl)piperidin-4-yl]-N-(imidazo[1,2-a]pyridin-7-ylmethyl)benzamide] was tested, and the IC50 was 56.7 nM. CCc1nc(C(=O)N2CCC(c3ccc(C(=O)NCc4ccn5ccnc5c4)cc3)CC2)cs1 [Example 1005, 4-{1-[(2-ethyl-1,3-thiazol-4-yl)carbonyl]piperidin-4-yl}-N-(imidazo[1,2-a]pyridin-7-ylmethyl)benzamide] showed an IC50 of 74.7 nM. In the case of CC(C)c1nccc(C(=O)N2CCC(c3ccc(C(=O)NCc4ccn5ccnc5c4)cc3)CC2)n1 [Example 1006, N-(imidazo[1,2-a]pyridin-7-ylmethyl)-4-(1-{[2-(propan-2-yl)pyrimidin-4-yl]carbonyl}piperidin-4-yl)benzamide], the IC50 is reported as 73.7 nM. Cc1cc(C(=O)N2CCC(c3ccc(C(=O)NCc4ccn5ccnc5c4)cc3)CC2)cnc1C [Example 1007, 4-{1-[(5,6-dimethylpyridin-3-yl)carbonyl]piperidin-4-yl}-N-(imidazo[1,2-a]pyridin-7-ylmethyl)benzamide] gave an IC50 of 37.3 nM. CC(C)C1CC(C(=O)N2CCC(c3ccc(C(=O)NCc4ccn5ccnc5c4)cc3)CC2)CCO1 (stereo not drawn) [Example 1008, N-(imidazo[1,2-a]pyridin-7-ylmethyl)-4-(1-{[2-(propan-2-yl)tetrahydro-2H-pyran-4-yl]carbonyl}piperidin-4-yl)benzamide] showed an IC50 of 2.94 nM. With COc1cccc(C)c1C(=O)N1CCC(c2ccc(C(=O)NCc3ccn4ccnc4c3)cc2)CC1 [Example 1009, N-(imidazo[1,2-a]pyridin-7-ylmethyl)-4-[1-(2-methoxy-6-methylbenzoyl)piperidin-4-yl]benzamide] the IC50 was 1.2 nM. O=C(NCc1ccn2ccnc2c1)c1ccc(C2CCN(C(=O)c3cccc4ncsc34)CC2)cc1 [Example 1010, 4-[1-(1,3-benzothiazol-7-ylcarbonyl)piperidin-4-yl]-N-(imidazo[1,2-a]pyridin-7-ylmethyl)benzamide] was tested, and the IC50 was 5.8 nM. In the case of CC(C)n1ccc(C(=O)N2CCC(c3ccc(NC(=O)NCc4ccn5ccnc5c4)cc3)CC2)n1 [Example 1011, 1-(imidazo[1,2-a]pyridin-7-ylmethyl)-3-[4-(1-{[1-(propan-2-yl)-1H-pyrazol-3-yl]carbonyl}piperidin-4-yl)phenyl]urea], the IC50 is reported as 1.97 nM. O=C(NCc1ccn2ccnc2c1)Nc1ccc(C2CCN(C(=O)[C@@H]3COc4ccccc4O3)CC2)cc1 [Example 1012, 1-(4-{1-[(2S)-2,3-dihydro-1,4-benzodioxin-2-ylcarbonyl]piperidin-4-yl}phenyl)-3-(imidazo[1,2-a]pyridin-7-ylmethyl)urea] was tested, and the IC50 was 8.36 nM. Cn1nc(C2CC2)cc1C(=O)N1CCC(c2ccc(NC(=O)NCc3ccn4ccnc4c3)cc2)CC1 [Example 1013, 1-(4-{1-[(3-cyclopropyl-1-methyl-1H-pyrazol-5-yl)carbonyl]piperidin-4-yl}phenyl)-3-(imidazo[1,2-a]pyridin-7-ylmethyl)urea] was tested, and the IC50 was 2.32 nM. Cn1nc2c(c1C(=O)N1CCC(c3ccc(NC(=O)NCc4ccn5ccnc5c4)cc3)CC1)CCCC2 [Example 1014, 1-(imidazo[1,2-a]pyridin-7-ylmethyl)-3-(4-{1-[(2-methyl-4,5,6,7-tetrahydro-2H-indazol-3-yl)carbonyl]piperidin-4-yl}phenyl)urea] was tested, and the IC50 was 2.07 nM. Compound O=C(NCc1ccn2ccnc2c1)Nc1ccc(C2CCN(C(=O)c3onc4c3CCCC4)CC2)cc1 [Example 1015, 1-(imidazo[1,2-a]pyridin-7-ylmethyl)-3-{4-[1-(4,5,6,7-tetrahydro-2,1-benzoxazol-3-ylcarbonyl)piperidin-4-yl]phenyl}urea] has an IC50 of 1.68 nM. O=C(NCc1ccn2ccnc2c1)Nc1ccc(C2CCN(C(=O)c3cc(Cl)ncc3F)CC2)cc1 [Example 1016, 1-(4-{1-[(2-chloro-5-fluoropyridin-4-yl)carbonyl]piperidin-4-yl}phenyl)-3-(imidazo[1,2-a]pyridin-7-ylmethyl)urea] was tested, and the IC50 was 2.19 nM. In the case of Cc1ccc(F)c(C(=O)N2CCC(c3ccc(NC(=O)NCc4ccn5ccnc5c4)cc3)CC2)n1 [Example 1017, 1-(4-{1-[(3-fluoro-6-methylpyridin-2-yl)carbonyl]piperidin-4-yl}phenyl)-3-(imidazo[1,2-a]pyridin-7-ylmethyl)urea], the IC50 is reported as 2.29 nM. O=C(NCc1ccn2ccnc2c1)Nc1ccc(C2CCN(C(=O)c3ccnc(Cl)c3F)CC2)cc1 [Example 1018, 1-(4-{1-[(2-chloro-3-fluoropyridin-4-yl)carbonyl]piperidin-4-yl}phenyl)-3-(imidazo[1,2-a]pyridin-7-ylmethyl)urea] showed an IC50 of 1.64 nM. With O=C(NCc1ccn2ccnc2c1)Nc1ccc(C2CCN(C(=O)c3ncccc3Cl)CC2)cc1 [Example 1019, 1-(4-{1-[(3-chloropyridin-2-yl)carbonyl]piperidin-4-yl}phenyl)-3-(imidazo[1,2-a]pyridin-7-ylmethyl)urea] the IC50 was 1.98 nM. With O=C(NCc1ccn2ccnc2c1)Nc1ccc(C2CCN(C(=O)C3(c4ccccn4)CC3)CC2)cc1 [Example 1020, 1-(imidazo[1,2-a]pyridin-7-ylmethyl)-3-[4-(1-{[1-(pyridin-2-yl)cyclopropyl]carbonyl}piperidin-4-yl)phenyl]urea] the IC50 was 0.901 nM. Compound O=C(NCc1ccn2ccnc2c1)Nc1ccc(C2CCN(C(=O)c3ccn(C4CCCC4)n3)CC2)cc1 [Example 1021, 1-(4-{1-[(1-cyclopentyl-1H-pyrazol-3-yl)carbonyl]piperidin-4-yl}phenyl)-3-(imidazo[1,2-a]pyridin-7-ylmethyl)urea] has an IC50 of 1.11 nM. O=C(NCc1ccn2ccnc2c1)Nc1ccc(C2CCN(C(=O)c3ccnn3C(F)F)CC2)cc1 [Example 1022, 1-[4-(1-{[1-(difluoromethyl)-1H-pyrazol-5-yl]carbonyl}piperidin-4-yl)phenyl]-3-(imidazo[1,2-a]pyridin-7-ylmethyl)urea] was tested, and the IC50 was 2.93 nM. Compound O=C(NCc1ccn2ccnc2c1)Nc1ccc(C2CCN(C(=O)C3COc4ccccc4O3)CC2)cc1 (stereo not drawn) [Example 1023, 1-{4-[1-(2,3-dihydro-1,4-benzodioxin-2-ylcarbonyl)piperidin-4-yl]phenyl}-3-(imidazo[1,2-a]pyridin-7-ylmethyl)urea] has an IC50 of 6.87 nM.
